Structures can show the parent of a compound that is named as a salt.
What was measured:
[1] = tested on: THP-1 cells; assay: Measurement of IL-1β production, hTRF protocol (second alternative procedure), THP-1 cells; type: cell-based, human; details: Homo sapiens, THP-1, IL-1β production, human cells; read-out: NLRP3 hILIB EC50
Outline: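 THP-1 cells differentiated overnight with 50 ng/ml PMA, then plated at 50,000 cells/well in RPMI with 2% FBS onto serial compound dilutions (top final concentration 10 μM) for 2 hours at 37° C. Supernatant IL-1β measured by hTRF (antibodies at 1:40, overnight at 4° C), read at 665/615 nm against a standard curve.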

[2] = biological target: T1, TLR7 (Homo sapiens, UniProt Q9NYK1); assay: In vitro human TLR7 binding reporter assay (HEK-Blue, NF-kB/AP1-inducible SEAP); type: cell-based; details: activity range, read-out: TLR7 Agonist EC50
T1 construct: human HEK-Blue cells co-expressing a TLR7 or TLR8 gene
T1 sequence (Q9NYK1 27-1049): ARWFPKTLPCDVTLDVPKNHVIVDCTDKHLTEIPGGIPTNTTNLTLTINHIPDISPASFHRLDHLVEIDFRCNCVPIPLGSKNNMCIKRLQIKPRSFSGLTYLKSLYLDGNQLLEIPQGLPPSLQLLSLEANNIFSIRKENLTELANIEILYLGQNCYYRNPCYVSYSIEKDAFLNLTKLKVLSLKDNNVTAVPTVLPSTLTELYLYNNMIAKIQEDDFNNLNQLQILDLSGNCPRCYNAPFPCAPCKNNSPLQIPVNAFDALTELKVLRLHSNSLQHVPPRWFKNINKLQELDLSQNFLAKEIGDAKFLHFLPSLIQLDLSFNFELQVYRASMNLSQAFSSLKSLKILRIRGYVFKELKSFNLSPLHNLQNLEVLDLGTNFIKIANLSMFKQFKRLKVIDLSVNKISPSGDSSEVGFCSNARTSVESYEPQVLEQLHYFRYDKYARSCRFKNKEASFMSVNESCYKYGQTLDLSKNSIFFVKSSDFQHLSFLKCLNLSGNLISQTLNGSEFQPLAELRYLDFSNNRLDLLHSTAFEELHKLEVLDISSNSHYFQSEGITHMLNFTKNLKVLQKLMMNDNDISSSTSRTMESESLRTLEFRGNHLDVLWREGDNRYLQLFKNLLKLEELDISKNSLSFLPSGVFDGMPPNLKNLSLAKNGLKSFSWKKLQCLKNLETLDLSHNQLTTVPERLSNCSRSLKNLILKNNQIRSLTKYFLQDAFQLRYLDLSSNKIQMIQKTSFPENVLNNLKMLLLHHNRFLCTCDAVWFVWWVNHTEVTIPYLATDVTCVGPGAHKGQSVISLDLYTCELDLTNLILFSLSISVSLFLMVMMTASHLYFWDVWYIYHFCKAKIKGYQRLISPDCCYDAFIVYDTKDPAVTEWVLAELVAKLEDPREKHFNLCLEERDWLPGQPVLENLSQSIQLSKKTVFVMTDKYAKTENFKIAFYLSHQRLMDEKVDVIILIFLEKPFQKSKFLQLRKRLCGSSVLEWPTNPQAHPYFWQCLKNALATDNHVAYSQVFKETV
Outline: (§1)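 HEK-Blue cells expressing human TLR7 or TLR8 with NF-kB/AP1-inducible SEAP reporter, plated 24 h, then compound-treated 18 h at 37° C, 5% CO2. EC50 normalized to 100% Ymax set by 50 μM reference standard.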

[3] = biological target: T2, TLR8 (Homo sapiens, UniProt Q9NR97); assay: In vitro human TLR8 binding reporter assay (HEK-Blue, NF-kB/AP1-inducible SEAP); type: cell-based; details: activity range, read-out: TLR8 Agonist EC50
T2 construct: human HEK-Blue cells co-expressing a TLR7 or TLR8 gene
T2 sequence (Q9NR97 27-1041): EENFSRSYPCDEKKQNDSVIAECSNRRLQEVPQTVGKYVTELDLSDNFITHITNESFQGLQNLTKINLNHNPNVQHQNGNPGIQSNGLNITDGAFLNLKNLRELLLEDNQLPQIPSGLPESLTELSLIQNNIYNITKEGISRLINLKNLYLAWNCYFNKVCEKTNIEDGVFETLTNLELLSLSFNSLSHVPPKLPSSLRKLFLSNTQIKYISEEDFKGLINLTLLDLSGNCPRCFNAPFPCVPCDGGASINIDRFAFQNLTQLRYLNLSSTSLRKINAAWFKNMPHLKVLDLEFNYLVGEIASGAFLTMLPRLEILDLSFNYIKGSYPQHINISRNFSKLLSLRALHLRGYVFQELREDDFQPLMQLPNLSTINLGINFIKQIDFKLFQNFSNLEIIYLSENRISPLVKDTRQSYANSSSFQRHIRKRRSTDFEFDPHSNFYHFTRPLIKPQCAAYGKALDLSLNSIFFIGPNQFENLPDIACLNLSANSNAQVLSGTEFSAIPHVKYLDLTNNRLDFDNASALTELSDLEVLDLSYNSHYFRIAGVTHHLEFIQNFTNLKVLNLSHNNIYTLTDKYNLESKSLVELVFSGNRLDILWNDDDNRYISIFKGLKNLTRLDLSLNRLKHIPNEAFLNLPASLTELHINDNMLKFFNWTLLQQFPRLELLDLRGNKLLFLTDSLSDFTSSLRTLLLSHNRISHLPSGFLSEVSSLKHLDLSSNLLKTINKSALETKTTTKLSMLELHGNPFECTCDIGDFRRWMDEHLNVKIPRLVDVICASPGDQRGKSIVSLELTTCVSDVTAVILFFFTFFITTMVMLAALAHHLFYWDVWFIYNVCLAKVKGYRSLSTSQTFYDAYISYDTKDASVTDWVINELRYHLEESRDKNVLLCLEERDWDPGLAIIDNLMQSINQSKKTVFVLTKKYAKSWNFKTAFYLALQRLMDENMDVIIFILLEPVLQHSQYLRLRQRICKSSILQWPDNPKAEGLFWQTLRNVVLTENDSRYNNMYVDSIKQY
Outline: as §1

Row | Compound | EC50 [1] | EC50 [2] | EC50 [3]
1 | CCS(=O)(=O)NCCc1cc2c(N)nc3cc(-c4cc[nH]n4)ccc3c2[nH]1 [Example 482] | 2.21 µM | > 100 µM | > 100 µM
2 | CC(C)S(=O)(=O)NCCc1cc2c(N)nc3cc(-c4cc[nH]n4)ccc3c2[nH]1 [Example 483] | 1.1 µM | > 100 µM | > 100 µM
3 | Nc1nc2cc(-c3cc[nH]n3)ccc2c2[nH]c(CCNS(=O)(=O)c3ccccc3)cc12 [Example 484] | 1.41 µM | > 100 µM | > 100 µM
4 | CC(Cn1cc2c(N)nc3cc(-c4ccn[nH]4)ccc3c2n1)C(=O)N(C)C (stereo not drawn) [Example 488, 3-(4-amino-7-(1H-pyrazol-5-yl)-2H-pyrazolo[4,3-c]quinolin-2-yl)-N,N,2-trimethylpropanamide.TFA] | 1.15 µM | > 100 µM | > 100 µM
5 | CO[C@H](CO)Cn1cc2c(N)nc3cc(-c4cc[nH]n4)ccc3c2n1 [Example 489] | 0.77 µM | > 100 µM | > 100 µM
6 | Nc1nc2cc(-c3cc[nH]n3)ccc2c2[nH]c(CN3C[C@H]4COC[C@H]4C3)cc12 [Example 490] | 0.84 µM | > 100 µM | > 100 µM
7 | CN(Cc1cc2c(N)nc3cc(-c4cc[nH]n4)ccc3c2[nH]1)[C@H]1CCOC1 [Example 491] | 1.17 µM | > 100 µM | > 100 µM
8 | Nc1nc2cc(-c3cc[nH]n3)ccc2c2[nH]c(CN3CC4(CCOC4)C3)cc12 [Example 492] | 0.76 µM | > 100 µM | > 100 µM
9 | Nc1nc2cc(-c3cc[nH]n3)ccc2c2[nH]c(CNCCO)cc12 [Example 494] | 1.89 µM | > 100 µM | > 100 µM
10 | Cc1nc(C(=O)NCCc2cc3c(N)nc4cc(-c5cc[nH]n5)ccc4c3[nH]2)cs1 [Example 495] | 0.45 µM | > 100 µM | > 100 µM
11 | COCCS(=O)(=O)NCCc1cc2c(N)nc3cc(-c4cc[nH]n4)ccc3c2[nH]1 [Example 498] | 2.39 µM | > 100 µM | > 100 µM
12 | CC(C)(C)c1cccc(C(=O)NCCc2cc3c(N)nc4cc(-c5cc[nH]n5)ccc4c3[nH]2)n1 [Example 499] | 1.34 µM | > 100 µM | > 100 µM
13 | Nc1nc2cc(-c3cc[nH]n3)ccc2c2nn(CCC(=O)N3CCOCC3)cc12 [Example 501] | 0.73 µM | > 100 µM | > 100 µM
14 | NC(=O)CCCn1cc2c(N)nc3cc(-c4cc[nH]n4)ccc3c2n1 [Example 502] | 1.68 µM | > 100 µM | > 100 µM
15 | Nc1nc2cc(-c3cc[nH]n3)ccc2c2nn(CCC(=O)N3CC(F)(F)C3)cc12 [Example 503] | 2.58 µM | > 100 µM | > 100 µM
16 | Nc1nc2cc(-c3cc[nH]n3)ccc2c2nn(CCC(=O)NC3CCC3)cc12 [Example 504] | 2.34 µM | > 100 µM | > 100 µM
17 | CN1CCN(C(=O)CCn2cc3c(N)nc4cc(-c5cc[nH]n5)ccc4c3n2)CC1 [Example 505] | 29.6 µM | > 100 µM | > 100 µM
18 | CN(C)C(=O)CCn1cc2c(N)nc3cc(-c4cc[nH]n4)ccc3c2n1 [Example 506] | 1.4 µM | > 100 µM | > 100 µM
19 | Nc1nc2cc(-c3cc[nH]n3)ccc2c2nn(CCC(=O)NCc3ccccn3)cc12 [Example 507] | 17.5 µM | > 100 µM | > 100 µM
20 | Nc1nc2cc(-c3cc[nH]n3)ccc2c2nn(CCC(=O)N3CCCC3)cc12 [Example 508] | 7.37 µM | > 100 µM | > 100 µM
21 | CC(C)(C(=O)N1CCCC1)n1cc2c(N)nc3cc(-c4cc[nH]n4)ccc3c2n1 [Example 509] | 6.95 µM | > 100 µM | > 100 µM
22 | CC(C)NC(=O)CCn1cc2c(N)nc3cc(-c4cc[nH]n4)ccc3c2n1 [Example 510] | 2.47 µM | > 100 µM | > 100 µM
23 | Nc1nc2cc(-c3cc[nH]n3)ccc2c2nn(CCC(=O)NCCO)cc12 [Example 511] | 4.62 µM | > 100 µM | > 100 µM
24 | Nc1nc2cc(-c3cc[nH]n3)ccc2c2nn(CCC(=O)N3CC(O)C3)cc12 [Example 512] | 5.82 µM | > 100 µM | > 100 µM
25 | CNC(=O)C(C)(C)n1cc2c(N)nc3cc(-c4cc[nH]n4)ccc3c2n1 [Example 513] | 1.28 µM | > 100 µM | > 100 µM

Molecules with a lower EC50 [1], results first:

Row | EC50 [1] | EC50 [2] | EC50 [3] | Compound
26 | 0.35 µM | > 100 µM | > 100 µM | Nc1nc2cc(-c3cc[nH]n3)ccc2c2[nH]c(CN[C@H]3CC[C@@H](CO)C3)cc12 [Example 478]
27 | 0.08 µM | > 100 µM | > 100 µM | COC1CN(Cc2cc3c(N)nc4cc(-c5cc[nH]n5)ccc4c3[nH]2)C1 [Example 479]
28 | 0.26 µM | > 100 µM | > 100 µM | Nc1nc2cc(-c3cc[nH]n3)ccc2c2[nH]c(CN3CC[C@@H](O)C3)cc12 [Example 480]
29 | 0.38 µM | > 100 µM | > 100 µM | CS(=O)(=O)NCCc1cc2c(N)nc3cc(-c4cc[nH]n4)ccc3c2[nH]1 [Example 481]
30 | 0.08 µM | > 100 µM | > 100 µM | Nc1nc2cc(-c3cc[nH]n3)ccc2c2[nH]c(CCNC(=O)c3csc(Cl)n3)cc12 [Example 485]
31 | 0.13 µM | > 100 µM | > 100 µM | Nc1nc2cc(-c3cc[nH]n3)ccc2c2[nH]c(CN3CCOCC3)c(Cl)c12 [Example 486]
32 | 0.37 µM | > 100 µM | > 100 µM | Nc1nc2cc(-c3cc[nH]n3)ccc2c2[nH]c(CN[C@H]3CCOC3)c(Cl)c12 [Example 487]
33 | 0.18 µM | > 100 µM | > 100 µM | Cc1nc(C(=O)NCCc2cc3c(N)nc4cc(-c5cc[nH]n5)ccc4c3[nH]2)co1 [Example 493]
34 | 0.05 µM | > 100 µM | > 100 µM | Nc1nc2cc(-c3cc[nH]n3)ccc2c2[nH]c(CNCCF)cc12 [Example 496]
35 | 0.05 µM | > 100 µM | > 100 µM | Nc1nc2cc(-c3cc[nH]n3)ccc2c2[nH]c(CNCC(F)(F)F)cc12 [Example 497]
36 | 0.37 µM | > 100 µM | > 100 µM | Nc1nc2cc(-c3cc[nH]n3)ccc2c2[nH]c(CCNC(=O)c3cnco3)cc12 [Example 500]

From patent publication US12037344B2, “NLRP3 modulators” (INNATE TUMOR IMMUNITY, INC., priority 2018, dated 2024)
